Measurements as given in US20160137746A1, “METHODS FOR TREATING HIGH CARDIOVASCULAR RISK PATIENTS WITH HYPERCHOLESTEROLEMIA” (Sanofi Biotechnology, priority 2014, published 2016).
Values joined by “and” are separate entries in the source; they are usually repeats but may differ in a detail not shown here. Equal values may be shown once.

Columns and labels:
[1] = system: high cardiovascular risk patients with hypercholesterolemia; experiment: ODYSSEY LONG TERM: lipid efficacy of alirocumab 150 mg Q2W vs placebo; format: in vivo, human
Method: Patients were stratified according to heFH population, prior history of MI or ischemic stroke, statin treatment and geographic region. Patients at high cardiovascular risk were defined as 1) having heFH (who may or may not have CHD/CHD risk equivalents) or 2) no prior diagnosis of heFH but having hypercholesterolemia together with established CHD or CHD risk equivalents.
Primary analyses of efficacy endpoints were conducted using an ITT approach (based on the ITT population defined above), including all lipid data, regardless of whether the patient was continuing therapy or not. This corresponds to ITT estimands, defined for primary and key secondary endpoints. In addition, analyses were also conducted using an on-treatment approach (based on the mITT population defined above), including lipid data collected during the efficacy treatment period. This corresponds to on-treatment estimands of key secondary endpoints.
With regards to the primary efficacy analysis (ITT approach), the percent change in calculated LDL-C from baseline to Week 24 was analyzed using a mixed-effect model with repeated measures (MMRM) approach. All post-baseline data available from Week 4 to Week 52 analysis windows were used and missing data were accounted for by the MMRM. […] This model provided baseline adjusted least-squares means (LSmeans) estimates at Week 24 for both treatment groups with their corresponding SEs and 95% confidence intervals.
Continuous secondary variables anticipated to have a normal distribution (i.e., lipids other than TGs and Lp(a)) were analyzed using the same MMRM model as for the primary endpoint. […] Combined estimate for mean in both treatment groups, as well as the differences of these estimates, with their corresponding SEs, 95% Cls and p-value were provided (through SAS MIANALYZE procedure).
Binary secondary efficacy endpoints were analyzed using multiple imputation approach for handling of missing values followed by stratified logistic regression with treatment group as main effect and corresponding baseline value(s) as covariate, stratified by randomization factors (as per IVRS). Combined estimates of odds ratio versus placebo, 95% CI, and p-value were provided (through SAS MIANALYZE procedure).

[2] = system: high cardiovascular risk patients with hypercholesterolemia; experiment: ODYSSEY LONG TERM: ophthalmologic sub-study; format: in vivo, human; details: including the ophthalmological sub-study
Excerpt: Patients underwent ophthalmologic assessments by ophthalmologists/optometrists at the screening period. If the patients were deemed eligible for the main study trial and fulfilled the additional eligibility criteria for the sub-study, then the patients underwent ophthalmologic assessments every 6 months during the 18-month double-blind treatment period
The primary endpoint was adverse events related to ophthalmologic abnormalities (using SMQ “optic nerve disorders”, “retinal disorders” and “corneal disorders”) over the study duration.

[3] = Week 24, total PCSK9 levels at or above the median
[4] = Week 24, total PCSK9 levels below the median
[5] = Week 24, ITT population, MMRM, alirocumab 150 Q2W
[6] = subgroup baseline HDL-C <40 mg/dL/<1.04 mmol/L, ITT
[7] = subgroup baseline HDL-C ≧40 mg/dL/≧1.04 mmol/L, ITT
[8] = subgroup baseline calculated LDL-C <100 mg/dL/<2.59 mmol/L, ITT
[9] = subgroup baseline calculated LDL-C ≧160 mg/dL/≧4.14 mmol/L, ITT
[10] = subgroup baseline calculated LDL-C ≧100 to <130 mg/dL/≧2.59 to <3.37 mmol/L, ITT
[11] = subgroup baseline calculated LDL-C ≧130 to <160 mg/dL/≧3.37 to <4.14 mmol/L, ITT

## Alirocumab: human anti-PCSK9 antibody; HCVR SEQ ID NO:1, LCVR SEQ ID NO:6; CDRs SEQ ID NOs 2/3/4/7/8/10
[1]; Week 24, men
  Calculated LDL-C, LS mean percent change from baseline: −65.5%
[1]; Week 24, patients with baseline LDL-C <100 mg/dL
  Calculated LDL-C percent change, treatment effect versus placebo: −75.0%
[1]; Week 24, patients with baseline LDL-C ≧160 mg/dL
  Calculated LDL-C percent change, treatment effect versus placebo: −41.3%
[1]; [3]
  Calculated LDL-C percent change, LS mean difference vs placebo: −66.0%
  Calculated LDL-C, LS mean percent change from baseline: −62.1%
[1]; [4]
  Calculated LDL-C percent change, LS mean difference vs placebo: −57.3%
  Calculated LDL-C, LS mean percent change from baseline: −60.1%
[1]; Week 24, women
  Calculated LDL-C percent change, LS mean difference vs placebo: −56.6%
  Calculated LDL-C, LS mean percent change from baseline: −53.4%
[1]; Week 24, ITT population
  Apo A1, LS mean (SE) change from baseline to Week 24 (%): 4.0 (0.4) %
  Apo B, LS mean (SE) change from baseline to Week 24 (%): −52.8 (0.7) %
  Fasting triglycerides, combined estimate for adjusted mean (SE) change from baseline to Week 24 (%): −15.6 (0.8) %
  HDL-C, LS mean (SE) change from baseline to Week 24 (%): 4.0 (0.4) %
  Lipoprotein (a), combined estimate for adjusted mean (SE) change from baseline to Week 24 (%): −29.3 (0.7) %
  Non-HDL-C, LS mean (SE) change from baseline to Week 24 (%): −51.6 (0.6) %
  Proportion (%) of patients reaching calculated LDL-C levels at Week 24: <70 mg/dL (regardless of risk): 79.3%
  Proportion (%) of patients reaching calculated LDL-C levels at Week 24: <70 mg/dL (very high risk) or <100 mg/dL (high risk): 80.7%
  Total cholesterol, LS mean (SE) change from baseline to Week 24 (%): −37.8 (0.5) %
[1]; Week 24, ITT population, MMRM
  Calculated LDL-C Week 24 percent change from baseline, LS mean difference (SE) vs placebo: −61.9 (1.3) %
[1]; [5]
  Calculated LDL-C percent change from baseline, LS mean (SE): −61.0 (0.7) % and −61.0%
  Calculated LDL-C value (absolute level), LS mean (SE): 48.3 (0.9) mg/dL
  Calculated LDL-C value, LS mean (SE): 1.252 mmol/L
[1]; Week 24, ITT, LDL-cholesterol measured by beta-quantification
  LS mean (SE) change from baseline to Week 24 in measured LDL-C: −57.8 (0.8) %
[1]; Week 24, On-treatment
  Apo-B - Percent change from baseline to Week 24, LS mean difference vs. placebo: placebo of −55.5%
  Calculated LDL-C - Percent change from baseline to Week 24, LS mean difference vs. placebo: placebo of −63.5%
  Non-HDL-C - Percent change from baseline to Week 24, LS mean difference vs. placebo: placebo of −53.7%
[1]; Week 24, subgroup baseline calculated LDL-C <100 mg/dL/<2.59 mmol/L, ITT
  LS mean absolute LDL-C reduction: -51.6 mg/dL
[1]; Week 24, subgroup baseline calculated LDL-C ≧160 mg/dL/≧4.14 mmol/L, ITT
  LS mean absolute LDL-C reduction: -115.8 mg/dL
[1]; Week 24, subgroup baseline calculated LDL-C ≧100 to <130 mg/dL/≧2.59 to <3.37 mmol/L, ITT
  LS mean absolute LDL-C reduction: -71.2 mg/dL
[1]; Week 24, subgroup baseline calculated LDL-C ≧130 to <160 mg/dL/≧3.37 to <4.14 mmol/L, ITT
  LS mean absolute LDL-C reduction: -85.3 mg/dL
[1]; Week 36, ITT population, MMRM, alirocumab 150 Q2W
  Calculated LDL-C percent change from baseline, LS mean (SE): −59.5%
[1]; Week 52, ITT population, MMRM, alirocumab 150 Q2W
  Calculated LDL-C percent change from baseline, LS mean (SE): −56.8%
[1]; Week 78
  Additional LDL-C reduction from baseline versus placebo: 56%
[1]; Week 78, ITT population
  Percentage change from baseline to Week 78 in calculated LDL-C: −52.4 (0.9) %
  Percentage change from baseline to Week 78 in calculated LDL-C, LS mean difference (SE) vs placebo: −56.0 (1.6) %
[1]; intention-to-treat, Week 24 (final analysis)
  Percent decrease in LDL cholesterol: 61%
[1]; [6]
  Percent change from baseline in calculated LDL-C at week 24, LS mean difference (SE) vs placebo: −66.1 (2.8) %
  Percent change from baseline in calculated LDL-C at week 24, LS means (SE): −65.5 (1.6) %
[1]; [7]
  Percent change from baseline in calculated LDL-C at week 24, LS mean difference (SE) vs placebo: −60.8 (1.4) %
  Percent change from baseline in calculated LDL-C at week 24, LS means (SE): −59.9 (0.8) %
[1]; [8]
  Percent change from baseline in calculated LDL-C at week 24, LS mean difference (SE) vs placebo: −75.0 (2.2) %
  Percent change from baseline in calculated LDL-C at week 24, LS means (SE): −61.3 (1.3) %
[1]; [9]
  Percent change from baseline in calculated LDL-C at week 24, LS mean difference (SE) vs placebo: −41.3 (3.3) %
  Percent change from baseline in calculated LDL-C at week 24, LS means (SE): −59.5 (1.9) %
[1]; [10]
  Percent change from baseline in calculated LDL-C at week 24, LS mean difference (SE) vs placebo: −62.5 (2.0) %
  Percent change from baseline in calculated LDL-C at week 24, LS means (SE): −62.0 (1.2) %
[1]; [11]
  Percent change from baseline in calculated LDL-C at week 24, LS mean difference (SE) vs placebo: −54.6 (2.9) %
  Percent change from baseline in calculated LDL-C at week 24, LS means (SE): −59.8 (1.7) %
[2]
  TEAEs related to ophthalmological events: no particular signal was detected
